According to PubChem BioAssay (NCI):
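These data come from cells grown in 96-well plates and exposed to compound for 48 hours at five concentrations. GI50: concentration for 50% inhibition of growth. TGI: concentration producing complete growth inhibition.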

Assays:
Test in all cases: DTP human tumour cell line panel, 48 h
HOP-62 NSCLC = test system: HOP-62 NSCLC
NCI-H460 lung = test system: NCI-H460 lung
SF-539 CNS = test system: SF-539 CNS
MCF7 breast = test system: MCF7 breast
M14 melanoma = test system: M14 melanoma
HS 578T breast = test system: HS 578T breast
OVCAR-3 ovarian = test system: OVCAR-3 ovarian
HCT-116 colon = test system: HCT-116 colon
ACHN renal = test system: ACHN renal
UACC-257 melanoma = test system: UACC-257 melanoma
UACC-62 melanoma = test system: UACC-62 melanoma
A549 NSCLC = test system: A549 NSCLC
HCT-15 colon = test system: HCT-15 colon
MDA-MB-231 breast = test system: MDA-MB-231 breast
SN12C renal = test system: SN12C renal
IGROV1 ovarian = test system: IGROV1 ovarian
SNB-19 CNS = test system: SNB-19 CNS
MDA-MB-435 = test system: MDA-MB-435
LOX IMVI melanoma = test system: LOX IMVI melanoma
BT-549 breast = test system: BT-549 breast
MOLT-4 leukemia = test system: MOLT-4 leukemia
HL-60(TB) leukemia = test system: HL-60(TB) leukemia
K-562 leukemia = test system: K-562 leukemia
786-0 renal = test system: 786-0 renal
A498 renal = test system: A498 renal
SR leukemia = test system: SR leukemia
SK-MEL-5 melanoma = test system: SK-MEL-5 melanoma
SK-MEL-28 melanoma = test system: SK-MEL-28 melanoma

`COc1ccc(-c2nn(-c3ccc(NC(=O)c4ccc(Cl)c(Cl)c4)cc3)cc2-c2ccncc2)cc1Cl` was tested, and the GI50 (HOP-62 NSCLC) was 1.62 µM, the TGI (HOP-62 NSCLC) was 17 µM and the GI50 (NCI-H460 lung) was 2.02 µM. It also gave a TGI (NCI-H460 lung) greater than 50 µM, a GI50 (SF-539 CNS) of 1.55 µM and a TGI (SF-539 CNS) greater than 19 µM. It also gave a GI50 (MCF7 breast) of 2.97 µM, a TGI (MCF7 breast) greater than 50 µM and a GI50 (M14 melanoma) of 1.67 µM. The TGI (M14 melanoma) was greater than 12.9 µM, the GI50 (HS 578T breast) was 1.05 µM and the TGI (HS 578T breast) was 3.37 µM. The GI50 (OVCAR-3 ovarian) was greater than 20.3 µM, the TGI (OVCAR-3 ovarian) was greater than 50 µM and the GI50 (HCT-116 colon) was 2.5 µM. It also gave a TGI (HCT-116 colon) greater than 50 µM, a GI50 (ACHN renal) greater than 13.2 µM and a TGI (ACHN renal) greater than 50 µM. For the same compound, the GI50 (UACC-257 melanoma) was greater than 34.5 µM, the TGI (UACC-257 melanoma) was greater than 50 µM and the GI50 (UACC-62 melanoma) was 1.78 µM. It also gave a TGI (UACC-62 melanoma) greater than 38.7 µM, a GI50 (A549 NSCLC) greater than 12.4 µM and a TGI (A549 NSCLC) greater than 50 µM. It also gave a GI50 (HCT-15 colon) of 1.09 µM, a TGI (HCT-15 colon) greater than 11 µM and a GI50 (MDA-MB-231 breast) of 0.993 µM. The TGI (MDA-MB-231 breast) was 2.96 µM, the GI50 (SN12C renal) was greater than 50 µM and the TGI (SN12C renal) was greater than 50 µM. The GI50 (IGROV1 ovarian) was greater than 50 µM, the TGI (IGROV1 ovarian) was greater than 50 µM and the GI50 (SNB-19 CNS) was 4.2 µM. It also gave a TGI (SNB-19 CNS) greater than 50 µM, a GI50 (MDA-MB-435) of 3.97 µM and a TGI (MDA-MB-435) greater than 50 µM. It also gave a GI50 (LOX IMVI melanoma) of 0.951 µM, a TGI (LOX IMVI melanoma) of 2.17 µM and a GI50 (BT-549 breast) of 3.23 µM. It also gave a TGI (BT-549 breast) greater than 50 µM, a GI50 (MOLT-4 leukemia) of 2.3 µM and a TGI (MOLT-4 leukemia) greater than 50 µM. For the same compound, the GI50 (HL-60(TB) leukemia) was 2.76 µM, the TGI (HL-60(TB) leukemia) was greater than 50 µM and the GI50 (K-562 leukemia) was 1.76 µM. For the same compound, the TGI (K-562 leukemia) was greater than 30.6 µM, the GI50 (786-0 renal) was 1.01 µM and the TGI (786-0 renal) was 2.53 µM. It also gave a GI50 (A498 renal) of 1.26 µM, a TGI (A498 renal) of 4.52 µM and a GI50 (SR leukemia) of 2.29 µM. For the same compound, the TGI (SR leukemia) was greater than 50 µM, the GI50 (SK-MEL-5 melanoma) was 1.91 µM and the TGI (SK-MEL-5 melanoma) was greater than 50 µM. The GI50 (SK-MEL-28 melanoma) was greater than 50 µM and the TGI (SK-MEL-28 melanoma) was greater than 50 µM.
